What was measured:
[1] = system: Echinochloa oryzoides (Ard.) Fritsch.; experiment: Preemergence weed control under flooded paddy conditions, ECHORC (Watergrass (Calif.)); format: in vivo; details: preemergence, flooded paddy, rated three to four weeks after treatment; also: meaning of each grade not given here
Cyperus iria [2] = experiment: Preemergence weed control under flooded paddy conditions, CYPIR (Rice Flatsedge); format: in vivo; details: preemergence, flooded paddy, rated three to four weeks after treatment; also: meaning of each grade not given here
[3] = system: Cyperus serotinus, Rottb.; experiment: Preemergence weed control under flooded paddy conditions, CYPSE (Flatsedge); format: in vivo; details: preemergence, rated three to four weeks after treatment; also: meaning of each grade not given here
[4] = system: Monochoria vaginalis, Presl.; experiment: Preemergence weed control under flooded paddy conditions, MOOVA (Monochoria); format: in vivo; details: preemergence, flooded paddy, rated three to four weeks after treatment; also: meaning of each grade not given here
Sagittaria pygmaea, L. [5] = experiment: Preemergence weed control under flooded paddy conditions, SAGPY (Arrowhead (Pygmaea)); format: in vivo; details: preemergence, flooded paddy, rated three to four weeks after treatment; also: meaning of each grade not given here
[6] = system: Echinochloa oryzoides (Ard.) Fritsch.; experiment: Postemergence weed control under flooded paddy conditions, ECHORC (Watergrass (Calif.)); format: in vivo; details: rated three to four weeks after treatment
Cyperus iria [7] = experiment: Postemergence weed control under flooded paddy conditions, CYPIR (Rice Flatsedge); format: in vivo; details: rated three to four weeks after treatment
[8] = system: Cyperus serotinus, Rottb.; experiment: Postemergence weed control under flooded paddy conditions, CYPSE (Flatsedge); format: in vivo; details: rated three to four weeks after treatment
[9] = system: Monochoria vaginalis, Presl.; experiment: Postemergence weed control under flooded paddy conditions, MOOVA (Monochoria); format: in vivo; details: rated three to four weeks after treatment
Sagittaria pygmaea, L. [10] = experiment: Postemergence weed control under flooded paddy conditions, SAGPY (Arrowhead (Pygmaea)); format: in vivo; details: rated three to four weeks after treatment
[11] = system: Oryza sativa, (L.) Tebonnet; experiment: Rice tolerance to post-transplant applications under flooded paddy conditions (Example 187), ORYSAT (Rice, Tebonnet); details: rated three to four weeks after treatment
[12] = system: Oryza sativa, (L.) Tebonnet; experiment: Rice tolerance to post-transplant applications under flooded paddy conditions (Example 188), ORYSAT (Rice, Tebonnet); details: rated three to four weeks after treatment

CCc1ccc(-c2nsc3ccc(-n4c(=O)cc(C(F)(F)F)n(C)c4=O)cc23)cc1 [Example 5, 3-[3-(p-Ethylphenyl)-1,2-benzisothiazol-5-yl]-1-methyl-6-(trifluoromethyl)-2,4(1H,3H)-pyrimidinedione]
herbicidal effect rating, ECHORC ([1]; 0.0313 kg/ha): 9.0
herbicidal effect rating, ECHORC ([1]; 0.0625 kg/ha): 9.0
herbicidal effect rating, ECHORC ([1]; 0.1250 kg/ha): 9.0
herbicidal effect rating, ECHORC ([1]; 0.2500 kg/ha): 9.0
herbicidal effect rating, ECHORC ([1]; 0.5000 kg/ha): 9.0
herbicidal effect rating, CYPIR (Cyperus iria [2]; 0.0313 kg/ha): 9.0
herbicidal effect rating, CYPIR (Cyperus iria [2]; 0.0625 kg/ha): 9.0
herbicidal effect rating, CYPIR (Cyperus iria [2]; 0.1250 kg/ha): 9.0
herbicidal effect rating, CYPIR (Cyperus iria [2]; 0.2500 kg/ha): 9.0
herbicidal effect rating, CYPIR (Cyperus iria [2]; 0.5000 kg/ha): 9.0
herbicidal effect rating, CYPSE ([3]; 0.0313 kg/ha): 0.0
herbicidal effect rating, CYPSE ([3]; 0.0625 kg/ha): 2.0
herbicidal effect rating, CYPSE ([3]; 0.1250 kg/ha): 6.0
herbicidal effect rating, CYPSE ([3]; 0.2500 kg/ha): 8.0
herbicidal effect rating, CYPSE ([3]; 0.5000 kg/ha): 7.0
herbicidal effect rating, MOOVA ([4]; 0.0313 kg/ha): 9.0
herbicidal effect rating, MOOVA ([4]; 0.0625 kg/ha): 9.0
herbicidal effect rating, MOOVA ([4]; 0.1250 kg/ha): 9.0
herbicidal effect rating, MOOVA ([4]; 0.2500 kg/ha): 9.0
herbicidal effect rating, MOOVA ([4]; 0.5000 kg/ha): 9.0
herbicidal effect rating, SAGPY (Sagittaria pygmaea, L. [5]; 0.0313 kg/ha): 0.0
herbicidal effect rating, SAGPY (Sagittaria pygmaea, L. [5]; 0.0625 kg/ha): 0.0
herbicidal effect rating, SAGPY (Sagittaria pygmaea, L. [5]; 0.1250 kg/ha): 2.0
herbicidal effect rating, SAGPY (Sagittaria pygmaea, L. [5]; 0.2500 kg/ha): 7.0
herbicidal effect rating, SAGPY (Sagittaria pygmaea, L. [5]; 0.5000 kg/ha): 7.0
herbicidal effect rating, ECHORC ([6]; Rate 0.0313 kg/ha): 2.0
herbicidal effect rating, ECHORC ([6]; Rate 0.0625 kg/ha): 7.0
herbicidal effect rating, ECHORC ([6]; Rate 0.1250 kg/ha): 6.0
herbicidal effect rating, ECHORC ([6]; Rate 0.2500 kg/ha): 9.0
herbicidal effect rating, ECHORC ([6]; Rate 0.5000 kg/ha): 9.0
herbicidal effect rating, CYPIR (Cyperus iria [7]; Rate 0.0313 kg/ha): 9.0
herbicidal effect rating, CYPIR (Cyperus iria [7]; Rate 0.0625 kg/ha): 9.0
herbicidal effect rating, CYPIR (Cyperus iria [7]; Rate 0.1250 kg/ha): 9.0
herbicidal effect rating, CYPIR (Cyperus iria [7]; Rate 0.2500 kg/ha): 9.0
herbicidal effect rating, CYPIR (Cyperus iria [7]; Rate 0.5000 kg/ha): 9.0
herbicidal effect rating, CYPSE ([8]; Rate 0.0313 kg/ha): 0.0
herbicidal effect rating, CYPSE ([8]; Rate 0.0625 kg/ha): 0.0
herbicidal effect rating, CYPSE ([8]; Rate 0.1250 kg/ha): 0.0
herbicidal effect rating, CYPSE ([8]; Rate 0.2500 kg/ha): 0.0
herbicidal effect rating, CYPSE ([8]; Rate 0.5000 kg/ha): 0.0
herbicidal effect rating, MOOVA ([9]; Rate 0.0313 kg/ha): 9.0
herbicidal effect rating, MOOVA ([9]; Rate 0.0625 kg/ha): 9.0
herbicidal effect rating, MOOVA ([9]; Rate 0.1250 kg/ha): 9.0
herbicidal effect rating, MOOVA ([9]; Rate 0.2500 kg/ha): 9.0
herbicidal effect rating, MOOVA ([9]; Rate 0.5000 kg/ha): 9.0
herbicidal effect rating, SAGPY (Sagittaria pygmaea, L. [10]; Rate 0.0313 kg/ha): 2.0
herbicidal effect rating, SAGPY (Sagittaria pygmaea, L. [10]; Rate 0.0625 kg/ha): 2.0
herbicidal effect rating, SAGPY (Sagittaria pygmaea, L. [10]; Rate 0.1250 kg/ha): 4.0
herbicidal effect rating, SAGPY (Sagittaria pygmaea, L. [10]; Rate 0.2500 kg/ha): 6.0
herbicidal effect rating, SAGPY (Sagittaria pygmaea, L. [10]; Rate 0.5000 kg/ha): 8.0
herbicidal effect rating, ORYSAT (rice tolerance) ([11]; 0.0313 kg/ha): 2.0
herbicidal effect rating, ORYSAT (rice tolerance) ([11]; 0.0625 kg/ha): 3.0
herbicidal effect rating, ORYSAT (rice tolerance) ([11]; 0.1250 kg/ha): 4.0
herbicidal effect rating, ORYSAT (rice tolerance) ([11]; 0.2500 kg/ha): 5.0
herbicidal effect rating, ORYSAT (rice tolerance) ([11]; 0.5000 kg/ha): 7.0
herbicidal effect rating, ORYSAT (rice tolerance) ([12]; Rate 0.0313 kg/ha): 2.0
herbicidal effect rating, ORYSAT (rice tolerance) ([12]; Rate 0.0625 kg/ha): 2.0
herbicidal effect rating, ORYSAT (rice tolerance) ([12]; Rate 0.1250 kg/ha): 4.0
herbicidal effect rating, ORYSAT (rice tolerance) ([12]; Rate 0.2500 kg/ha): 6.0
herbicidal effect rating, ORYSAT (rice tolerance) ([12]; Rate 0.5000 kg/ha): 8.0

Cc1nsc2ccc(-n3c(=O)cc(C(F)(F)F)n(C)c3=O)cc12 [Example 6, 1-Methyl-3-(3-methyl-1,2-benzisothiazol-5-yl)-6-(trifluoromethyl)-2,4(1H,3H)-pyrimidinedione]
herbicidal effect rating, ECHORC ([1]; 0.0625 kg/ha): 6.0
herbicidal effect rating, ECHORC ([1]; 0.1250 kg/ha): 8.0
herbicidal effect rating, ECHORC ([1]; 0.2500 kg/ha): 9.0
herbicidal effect rating, ECHORC ([1]; 0.5000 kg/ha): 9.0
herbicidal effect rating, CYPIR (Cyperus iria [2]; 0.0625 kg/ha): 9.0
herbicidal effect rating, CYPIR (Cyperus iria [2]; 0.1250 kg/ha): 9.0
herbicidal effect rating, CYPIR (Cyperus iria [2]; 0.2500 kg/ha): 9.0
herbicidal effect rating, CYPIR (Cyperus iria [2]; 0.5000 kg/ha): 9.0
herbicidal effect rating, CYPSE ([3]; 0.0625 kg/ha): 4.0
herbicidal effect rating, CYPSE ([3]; 0.1250 kg/ha): 7.0
herbicidal effect rating, CYPSE ([3]; 0.2500 kg/ha): 9.0
herbicidal effect rating, CYPSE ([3]; 0.5000 kg/ha): 9.0
herbicidal effect rating, MOOVA ([4]; 0.0625 kg/ha): 9.0
herbicidal effect rating, MOOVA ([4]; 0.1250 kg/ha): 9.0
herbicidal effect rating, MOOVA ([4]; 0.2500 kg/ha): 9.0
herbicidal effect rating, MOOVA ([4]; 0.5000 kg/ha): 9.0
herbicidal effect rating, SAGPY (Sagittaria pygmaea, L. [5]; 0.0625 kg/ha): 4.0
herbicidal effect rating, SAGPY (Sagittaria pygmaea, L. [5]; 0.1250 kg/ha): 7.0
herbicidal effect rating, SAGPY (Sagittaria pygmaea, L. [5]; 0.2500 kg/ha): 7.0
herbicidal effect rating, SAGPY (Sagittaria pygmaea, L. [5]; 0.5000 kg/ha): 9.0
herbicidal effect rating, ECHORC ([6]; Rate 0.0313 kg/ha): 4.0
herbicidal effect rating, ECHORC ([6]; Rate 0.0625 kg/ha): 7.0
herbicidal effect rating, ECHORC ([6]; Rate 0.1250 kg/ha): 9.0
herbicidal effect rating, ECHORC ([6]; Rate 0.2500 kg/ha): 9.0
herbicidal effect rating, ECHORC ([6]; Rate 0.5000 kg/ha): 9.0
herbicidal effect rating, CYPIR (Cyperus iria [7]; Rate 0.0313 kg/ha): 9.0
herbicidal effect rating, CYPIR (Cyperus iria [7]; Rate 0.0625 kg/ha): 9.0
herbicidal effect rating, CYPIR (Cyperus iria [7]; Rate 0.1250 kg/ha): 9.0
herbicidal effect rating, CYPIR (Cyperus iria [7]; Rate 0.2500 kg/ha): 9.0
herbicidal effect rating, CYPIR (Cyperus iria [7]; Rate 0.5000 kg/ha): 9.0
herbicidal effect rating, CYPSE ([8]; Rate 0.0313 kg/ha): 0.0
herbicidal effect rating, CYPSE ([8]; Rate 0.0625 kg/ha): 2.0
herbicidal effect rating, CYPSE ([8]; Rate 0.1250 kg/ha): 7.0
herbicidal effect rating, CYPSE ([8]; Rate 0.2500 kg/ha): 7.0
herbicidal effect rating, CYPSE ([8]; Rate 0.5000 kg/ha): 9.0
herbicidal effect rating, MOOVA ([9]; Rate 0.0313 kg/ha): 9.0
herbicidal effect rating, MOOVA ([9]; Rate 0.0625 kg/ha): 9.0
herbicidal effect rating, MOOVA ([9]; Rate 0.1250 kg/ha): 9.0
herbicidal effect rating, MOOVA ([9]; Rate 0.2500 kg/ha): 9.0
herbicidal effect rating, MOOVA ([9]; Rate 0.5000 kg/ha): 9.0
herbicidal effect rating, SAGPY (Sagittaria pygmaea, L. [10]; Rate 0.0313 kg/ha): 2.0
herbicidal effect rating, SAGPY (Sagittaria pygmaea, L. [10]; Rate 0.0625 kg/ha): 4.0
herbicidal effect rating, SAGPY (Sagittaria pygmaea, L. [10]; Rate 0.1250 kg/ha): 6.0
herbicidal effect rating, SAGPY (Sagittaria pygmaea, L. [10]; Rate 0.2500 kg/ha): 8.0
herbicidal effect rating, SAGPY (Sagittaria pygmaea, L. [10]; Rate 0.5000 kg/ha): 9.0
herbicidal effect rating, ORYSAT (rice tolerance) ([11]; 0.0625 kg/ha): 8.0
herbicidal effect rating, ORYSAT (rice tolerance) ([11]; 0.1250 kg/ha): 8.0
herbicidal effect rating, ORYSAT (rice tolerance) ([11]; 0.2500 kg/ha): 8.0
herbicidal effect rating, ORYSAT (rice tolerance) ([11]; 0.5000 kg/ha): 8.0
herbicidal effect rating, ORYSAT (rice tolerance) ([12]; Rate 0.0313 kg/ha): 4.0
herbicidal effect rating, ORYSAT (rice tolerance) ([12]; Rate 0.0625 kg/ha): 4.0
herbicidal effect rating, ORYSAT (rice tolerance) ([12]; Rate 0.1250 kg/ha): 9.0
herbicidal effect rating, ORYSAT (rice tolerance) ([12]; Rate 0.2500 kg/ha): 9.0
herbicidal effect rating, ORYSAT (rice tolerance) ([12]; Rate 0.5000 kg/ha): 9.0

— patent publication EP0908457B1, “3-(1,2-benzisothiazol- and isoxazol-5-Y1)-2,4(1H,3H)-pyrimidinedione or thione and 3-(1,2-benzisothiazol- and isoxazol-5-y1)-4(3H)-pyrimidinone or thione herbicidal agents” (BASF AKTIENGESELLSCHAFT, priority 1997, dated 1999)
